The text below walks through data of publication PMC7066135, “The lipoprotein Pal stabilises the bacterial outer membrane during constriction by a mobilisation-and-capture mechanism” (Nature Communications, 2020).

Ends that are not written are not given here. Peptide text beside a SMILES is read from it. * marks the point of attachment. FITC = O=C1OC2(c3ccc(O)cc3Oc3cc(O)ccc32)c2ccc(NC(=S)*)cc21

For test [1], the system named is Pal-mCherry in E. coli cells. The experiment in a line: Fluorescence recovery after photobleaching (FRAP) of Pal-mCherry. Type of test: cell-based. Conditions: non-dividing cells, average from 30 cells. The procedure: Overnight supplemented M9-glucose (2 mM MgSO4, 0.1 mM CaCl2, 0.4% (w/v) D-glucose) cultures were diluted in fresh medium with appropriate antibiotics and IPTG for strains expressing TolA from plasmids. Cultures were grown at 37 °C to OD600 0.3. Cells were centrifuged at 7000 × g for 1 min, resuspended in 1 ml of fresh media and treated with CCCP (0.1 mM, RT for 5 min, Sigma #C2759) for PMF decoupling, sodium azide (50 µg ml^−1, RT for 30 min, Sigma #S2002) for ATPase inhibition or chloramphenicol (30 µg ml^−1, 37 °C for 30 min, Sigma #C0378) for translation inhibition. […]
Microscopy was performed on a Zeiss LSM 880/Axio Examiner Z1 motorised upright laser scanning microscope equipped with Argon multiline 458/488/514 nm (25 mW), and HeNe 561 nm (1 mW) and ×63 oil-immersion objective (Zeiss, NA 1.4) set to 37 °C. […] Two images were acquired before bleaching and ten images, with a time interval of 1 min, recorded after bleaching using an automatic time-course function. […] For all fluorescent images, corresponding differential interference contrast (DIC) images were recorded using transmitted light. All images were recorded using Zeiss Zen 2011 software.
All images were analysed using ImageJ software. Fluorescence distribution along x-axis of cells was determined by the plot profile function with a line width of 4 points for TIRFM images and 40 or 80 for FRAP images. […]

The target of test [2] is T1, TolA224-344 lacking its short C-terminal α-helix (Pseudomonas aeruginosa, UniProt P50600).
T1 construct: Open symbols, TolA224-344 lacking its short; His-tagged Im9 (fusion partner, factor Xa site) (N); made in house; host or cells: E. coli BL21 (DE3)
The experiment in a line: Fluorescence anisotropy titration, FITC-labelled TolB peptide, helix-truncated TolA. Conditions: versus wild-type TolA224-347. In kind it is binding, P. aeruginosa. The procedure:
Fluorescence anisotropy experiments were used to observe the change in overall anisotropy of P. aeruginosa TolB^22–34 fluorescein isothiocyanate (FITC) in complex with the C-terminal domain of TolA. A titration curve was recorded using 40 μl fractions in a 96-well, black absorbent, 100 μl plate, n = 3.
Experiments were carried out using either a CLARIOstar plate reader or a Fluoromax- 4 spectrofluorimeter (Horiba JobinYvon). Titrations were carried out between 0 and 1.2 mM TolA. […] FITC excitation wavelength used was 495 nm with an emission wavelength at 519 nm. All experiments were conducted in 50 mM Tris 100 mM NaCl pH 7.0 and used light-blocking tubes to minimize quenching.
(§1) Data were fitted using the manufac-turer ’s software assuming a 1:1 binding model, validated by the resulting structure for the complex. From three independent measurements, average values for ΔH […] (±0.24 standard deviation (SD)) kcal.mol-1, ΔS +11.8 (±2.14 SD) cal.K-1 […]
(§2) form of an isolated peptide. b, Binding of TolB22-34 to the C-terminal domain of 15N-labelled TolA224-347 from P. aeruginosa followed by changes in 1H, 15N-HSQC spectra, >80% of all TolA peaks were perturbed by TolB22-33 binding. Every peak was […]
(§3) and free (32%) TolA. […]
(§4) five-fold weaker binding than the E. coli complex. c, Fluorescence anisotropy binding curves for P. aeruginosa TolB22-33 binding the C-terminal domain of TolA. […]
On the technique in general: Polarisation of emitted light reports the rotation of a fluorescent probe.

Test [3] deals with T2, C-terminal domain of wild-type TolA (Pseudomonas aeruginosa, UniProt P50600).
T2 construct: The C-terminal domain of Pseudomonas aeruginosa TolA (TolA^224–347) and its derivatives; His-tagged Im9 (fusion partner, factor Xa site) (N, cleaved yes); made in house; host or cells: E. coli BL21 (DE3)
The experiment in a line: Stopped-flow fluorescence anisotropy, wild-type TolA. Type of test: binding, P. aeruginosa. The procedure: (§5) Experiments were conducted on an Applied Photophysics SX20 instrument set up for 1:1 single mixing and thermostated using a circulating water bath at 25 °C. All stopped-flow experiments were carried out in 50 mM Tris pH 7.0, 100 mM NaCl and under pseudo-first-order conditions. […] Monochromator entrance and exit slits were set to 2 mm. A total of 4000–10,000 data points were collected for each reaction. At least four anisotropy traces were collected for each reaction and averaged for each time-dependence fit. All anisotropy traces were fit to a single exponential rate equation. Each reaction concentration was collected in triplicate and validated using recombinant protein from different protein purifications. SigmaPlot was used for linear regression analysis to fit the dependence of kobs on the varied concentration of TolA. Titrations were performed at increasing concentration of protein relative to a constant concentration of peptide at 1 μM. Experiments were typically performed with 4–10-s data collection periods.
(§6) of mutations in vitro and in vivo. All in vitro measurements used the P. aeruginosa complex while all in vivo assays
(§7) binding a 100-fold excess of the C-terminal domain of wild-type TolA (red) and TolA with its C-terminal α-helix removed
(§8) tion yielding an observed rate (kobs). […]

The target of test [4] is T3, TolA with its C-terminal α-helix removed (Pseudomonas aeruginosa, UniProt P50600).
T3 construct: Open symbols, TolA224-344 lacking its short; His-tagged Im9 (fusion partner, factor Xa site) (N); made in house; host or cells: E. coli BL21 (DE3)
The experiment in a line: Stopped-flow fluorescence anisotropy, helix-truncated TolA. Type of test: binding, P. aeruginosa. The procedure: as §5, §6, §7, §8

In the next test the target is T4, TolA224-347 (Pseudomonas aeruginosa, UniProt P50600).
T4 construct: The C-terminal domain of Pseudomonas aeruginosa TolA (TolA^224–347) and its derivatives; His-tagged Im9 (fusion partner, factor Xa site) (N, cleaved yes); made in house; host or cells: E. coli BL21 (DE3)
The experiment in a line: NMR titration (1H,15N-HSQC), TolB peptide binding 15N-labelled TolA. The arrangement: species or system P. aeruginosa. To be noted: 1H,15N-HSQC spectra; slow chemical exchange. The procedure:
NMR experiments were carried out using spectrometers operating at ^1H frequencies ranging from 500 to 950 MHz. The spectrometers were equipped with Oxford Instruments magnets and home-built triple-resonance pulsed-field gradient probes (600, 750 and 950 MHz) or with Bruker Avance consoles and TCI CryoProbes (500 and 600 MHz). NMR data were acquired using either GE/Omega software using pulse sequences written in-house, or Topspin software and pulse sequences in the Topspin libraries from Bruker Biospin. All data processing was conducted using NMRPipe[49]. Processed spectra were visualized and assigned using the CCPN software suite. All NMR data were collected at 20 °C.
as §1, §2, §3, §4

Test [5] deals with E. coli TolB22-33 peptide. The experiment in a line: ITC.
The target in test [6] is P. aeruginosa TolB^22–34 fluorescein isothiocyanate (FITC) (P. aeruginosa) (UniProt P50601). The experiment in a line: FP.
For a further test, the target named is Pal (Escherichia coli) (UniProt P0A912). Conditions: cited from earlier work.
Pal (Escherichia coli), sequence (P0A912 22-173): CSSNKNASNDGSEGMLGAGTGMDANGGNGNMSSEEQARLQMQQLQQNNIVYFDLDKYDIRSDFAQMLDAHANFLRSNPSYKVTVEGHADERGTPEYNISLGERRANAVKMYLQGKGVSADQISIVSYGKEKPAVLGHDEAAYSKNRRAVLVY
For the next test, the target named is TolA (Escherichia coli) (UniProt P19934). Conditions: cited from earlier work.
TolA (Escherichia coli), sequence (P19934 whole entry): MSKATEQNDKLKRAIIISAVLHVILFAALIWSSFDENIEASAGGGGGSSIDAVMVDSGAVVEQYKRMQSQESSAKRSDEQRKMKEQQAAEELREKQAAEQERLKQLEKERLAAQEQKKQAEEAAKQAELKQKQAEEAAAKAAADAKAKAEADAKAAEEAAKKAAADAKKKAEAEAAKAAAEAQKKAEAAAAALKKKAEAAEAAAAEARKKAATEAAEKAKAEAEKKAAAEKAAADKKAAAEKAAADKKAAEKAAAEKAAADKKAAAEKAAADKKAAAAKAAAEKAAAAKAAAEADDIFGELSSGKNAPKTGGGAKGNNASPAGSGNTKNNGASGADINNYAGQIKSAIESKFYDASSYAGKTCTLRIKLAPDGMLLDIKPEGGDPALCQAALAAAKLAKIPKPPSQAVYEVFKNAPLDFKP
For another test, the system named is TolA-GFP at the divisome. Briefly: 3D-SIM of TolA-GFP recruitment to the divisome. Conditions: TolB I25A, I27A background versus wild-type TolB, expressed from plasmid; n = 30; Mann-Whitney U and t test. Type of test: cell-based, E. coli. The source says:
Live bacteria were mounted between an agarose pad and a coverslip. Imaging was processed at room temperature with a ×60, NA 1.42 oil objective on a Deltavision OMX V3 Blaze (GE) equipped with a 488 laser. Image stacks of several μm thickness were taken with 0.125 μm z-steps and 15 images (three angles and five phases per angle) per z-section and a 3D-structured illumination with stripe separation of 213 nm. Laser power was set at 10% to scan the sample over 4 µm thickness (32 slices) without too much photobleaching. Image stacks were reconstructed using Deltavision softWoRx 6.1.1 software with a Wiener filter of 0.002 using wavelength-specific experimentally determined OTF functions (see ref. [37]). […] Distribution of fluorescence intensity along the x-axis of bacteria was determined using a custom script implemented in MATLAB (version 2012a, MathWorks) (see ref. [40]). […] Intensity along the selected bacteria was measured 11 times between the bacterial end-points, each at a uniformly spaced offset from the bacterial long axis. The mean profile was calculated and normalized to the range 0–100 for comparison between bacteria. Diameter measurements correspond to the height of ring, calculated automatically through ImageJ software from each reconstructed and filtered image. A total of 30 cells were analysed per condition, in triplicate. […]

In test [7] the target is T5, C-terminal domain of Pseudomonas aeruginosa TolA (TolA^224–347) (Pseudomonas aeruginosa, UniProt P50600 224-347).
T5 chain: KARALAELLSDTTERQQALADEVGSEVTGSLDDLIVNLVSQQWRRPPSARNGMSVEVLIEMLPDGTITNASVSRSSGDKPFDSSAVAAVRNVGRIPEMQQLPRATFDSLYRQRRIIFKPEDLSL
Briefly: FP.

For test [8], the target named is T5, C-terminal domain of Pseudomonas …. Briefly: NMR.

TolB, sequence (P0A855 22-430): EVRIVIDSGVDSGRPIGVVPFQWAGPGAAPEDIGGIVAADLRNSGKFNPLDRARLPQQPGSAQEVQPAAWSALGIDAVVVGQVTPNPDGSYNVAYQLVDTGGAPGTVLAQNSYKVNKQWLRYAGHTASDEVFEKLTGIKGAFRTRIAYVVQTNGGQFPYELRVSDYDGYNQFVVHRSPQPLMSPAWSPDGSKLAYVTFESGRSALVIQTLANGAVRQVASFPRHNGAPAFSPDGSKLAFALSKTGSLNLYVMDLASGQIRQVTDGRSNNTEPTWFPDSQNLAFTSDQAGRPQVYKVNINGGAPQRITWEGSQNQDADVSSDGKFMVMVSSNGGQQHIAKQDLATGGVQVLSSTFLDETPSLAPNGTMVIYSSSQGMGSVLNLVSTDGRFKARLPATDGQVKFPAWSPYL

For `N#CC(C#N)=NNc1cccc(Cl)c1` [CCCP], the “effect on FRAP recovery” value in test [1] (CCCP 0.1 mM) is listed as “measurable effect”.
With `CC[C@H](C)[C@H](NC(=O)[C@@H](NC(=O)[C@H](CC(C)C)NC(=O)[C@@H]1CCCN1C(=O)[C@H](CC(=O)O)NC(=O)[C@H](C)N)C(C)C)C(=O)N[C@@H](CO)C(=O)N[C@@H](CO)C(=O)NCC(=O)N[C@@H](CC(N)=O)C(=O)N[C@@H](CC(=O)O)C(=O)N[C@@H](CCCNC(=N)N)C(=O)N[C@@H](CCCCNC(=S)Nc1ccc2c(c1)C(=O)OC21c2ccc(O)cc2Oc2cc(O)ccc21)C(N)=O` [P. aeruginosa TolB22-33] (H-ADPLVISSGNDRK(FITC)-NH2; N-terminus and C-terminus assumed), in test [2], the “improvement of TolB binding on deletion of the TolA helix” value is “three-fold”. Moreover, the dissociation rate constant (koff) in [3] was determined as 0.9 s⁻¹; in [4], 1.4 s⁻¹. In addition, in test [4] (helix truncation versus wild-type TolA), the “kon relative to wild-type complex” value was “three-fold faster”.
`[N-]=[N+]=[N-].[Na+]` [sodium azide]: in [1] (sodium azide 50 µg/µl), the “effect on FRAP recovery” value was “measurable effect”.
Take ADPLVISSGNDRA-NH2 [TolB22-34]: the “TolA peaks perturbed by TolB peptide binding” value at TolA224-347 was over 80%.
Regarding E. coli TolA C-terminal domain, in [5], the Kd turned out to be 42 µM.
The molecule “TolA224-344 (P. aeruginosa, lacking C-terminal α-helix)” yielded a dissociation constant Kd in test [6] of 86 µM.
As to TolB (from UniProt P0A855), the equilibrium dissociation constant (Kd) was 0.03 µM in the test with Pal (Escherichia coli) and 40 µM with TolA (Escherichia coli).
Regarding TolB I25A, I27A, the “divisome recruitment of TolA-GFP (intensity distribution, ring diameter)” value in the test on TolA-GFP at the divisome is “no significant difference”.
Turning to ADPLVISSGNDRAK(FITC) [P. aeruginosa TolB^22–34 fluorescein isothiocyanate (FITC)], the equilibrium dissociation constant (Kd) in test [7] is 250 µM.
For ADPLVISSGNDRA-NH2 [P. aeruginosa TolB^22–34 peptide (the N-terminus of secreted TolB; the TolA box)], the Kd in [8] was determined as 220 µM.

For orientation: koff means the first-order rate constant of dissociation. Higher therefore signals fast dissociation. The term Kd denotes the constant that tells how readily two partners part at equilibrium.
